Data on 5 compounds can be found in patent publication US20240082277A1, “MODIFIED ANTIHISTAMINE COMPOSITION AND ANTIVIRAL TREATMENT” (priority 2022, published 2024).

≈ marks a conversion by molar mass, not a printed value. Where a name gives a salt, the structure may show the parent alone. Read-outs that look alike come from different tables or passages of the source.

For data set [1], the target named is T1, human H1 histamine receptors (HRH1) (Homo sapiens, UniProt P35367).
T1 construct: expressed in transfected cells; host or cells: CHO-K1
T1 sequence (P35367 whole entry): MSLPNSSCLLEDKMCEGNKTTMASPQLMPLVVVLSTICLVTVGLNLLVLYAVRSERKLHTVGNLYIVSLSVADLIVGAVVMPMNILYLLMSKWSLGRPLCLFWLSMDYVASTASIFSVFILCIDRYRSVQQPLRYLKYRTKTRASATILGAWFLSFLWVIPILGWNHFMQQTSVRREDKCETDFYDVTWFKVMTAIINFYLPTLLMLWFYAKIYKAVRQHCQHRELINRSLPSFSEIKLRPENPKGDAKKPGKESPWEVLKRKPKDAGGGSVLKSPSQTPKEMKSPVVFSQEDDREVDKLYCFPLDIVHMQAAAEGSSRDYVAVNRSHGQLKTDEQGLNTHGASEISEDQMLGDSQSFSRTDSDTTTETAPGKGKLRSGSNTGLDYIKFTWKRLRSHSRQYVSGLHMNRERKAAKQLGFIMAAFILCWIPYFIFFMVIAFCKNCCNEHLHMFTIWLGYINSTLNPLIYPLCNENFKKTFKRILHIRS
Description: HRH1 antagonist calcium flux assay (Fluo-8, FLIPR TETRA) in CHO-K1 cells. It counts as cell-based.

Data set [2] deals with SARS-CoV-2 Delta (B.1.617.2).
A short description of the next data set: in vitro. The note with it: African green monkey, Cytotoxicity (CC50).
The test system of data set [3] is SARS-CoV-2 Omicron (B.1.1.529).
In data set [4] the test system is SARS-CoV-2 Omicron (B.1.1.529). The experiment in a line: microbe, parasite or virus in culture.
The subject of data set [5] is SARS-CoV-2 Delta (B.1.617.2). The experiment in a line: microbe, parasite or virus in culture.
Where [6] appears, read: CHO-K1, read-out: Normalized % Inhibition.
The mark [7] stands for this setting: Severe acute respiratory syndrome coronavirus 2, VeroE6/TMPRSS2, read-out: % cell viability.

On to `O=C(O)COCCN1CCN(C(c2ccccc2)c2ccc(Cl)cc2)CC1` (stereo not shown) [Cetirizine Dihydrochloride], for which, in data set [1] (setting [6]), the inhibition at 0.01 µM was determined as 23.9%, the inhibition at 0.03 µM worked out at 23.6%, the inhibition at 0.1 µM was 15.3% and the inhibition at 0.3 µM was found to be 14.2%. Moreover, in data set [1] (setting [6]), the inhibition at 1 µM was determined as 31.3%, the inhibition at 3 µM was determined as 67.3%, the inhibition at 10 µM worked out at 98.9% and the inhibition at 100 µM turned out to be 99.3%. Moreover, in data set [1] (CHO-K1, 30000 nM, antagonist assay vs 70 nM histamine, read-out: Normalized % Inhibition), the inhibition at 30 µM is 100%.

In the case of `CN(C)CCOC(c1ccccc1)c1ccccc1` [Diphenhydramine hydrochloride, reference compound], the “Effect on percentage infection (in words)” value was “slight reduction in percentage infection was seen” in data set [2] and “slight reduction in percentage infection was seen” in data set [2] (Therapeutic treatment, Delta strain).

For the compound `NCCc1c[nH]cn1` [Histamine], the “RLU (maximum Relative Light Unit)” value in data set [1] worked out at 3431.5 RLU.

For `CN(C)CCO[Si](C)(c1ccccc1)c1ccccc1` [Q-Ant #8, N,N-dimethyl-2-((methyldiphenylsilyl)oxy)ethan-1-amine], half-maximal cytotoxicity in the data set “in vitro” (CC50) was put at 613 µg/mL (≈ 2150 µM). Besides, in data set [3], the “Effect on percentage infection (in words)” value is “reduction in percentage infection was seen” and the “Efficacy (EC50) Omicron” value stood at 245.6 µg/mL. Also, the “Selectivity index Omicron (CC50/EC50)” value in data set [3] (Therapeutic treatment) amounted to 1.69. The IC50 in data set [1] came out at 33.5 nM. Moreover, the inhibition at 1 µM in data set [1] (setting [6]) came out at 97.7%. Further, the inhibition at 0.0003 µM in data set [1] (CHO-K1, 0.3 nM, antagonist assay vs 70 nM histamine, read-out: Normalized % Inhibition) is -32.6%. Also, the inhibition at 0.001 µM in data set [1] (CHO-K1, 1 nM, antagonist assay vs 70 nM histamine, read-out: Normalized % Inhibition) is -33.4%. The inhibition at 0.003 µM in data set [1] (CHO-K1, 3 nM, antagonist assay vs 70 nM histamine, read-out: Normalized % Inhibition) is -31%. In data set [1] (CHO-K1, 10 nM, antagonist assay vs 70 nM histamine, read-out: Normalized % Inhibition), the inhibition at 0.01 µM was -11.9%. For the same compound, the inhibition at 0.03 µM in data set [1] (CHO-K1, 30 nM, antagonist assay vs 70 nM histamine, read-out: Normalized % Inhibition) was 29.4%. Further, the inhibition at 0.1 µM in data set [1] (CHO-K1, 100 nM, antagonist assay vs 70 nM histamine, read-out: Normalized % Inhibition) is 72.9%. The inhibition at 0.3 µM in data set [1] (CHO-K1, 300 nM, antagonist assay vs 70 nM histamine, read-out: Normalized % Inhibition) came out at 97.1%. In data set [2], the “Effect on percentage infection (in words)” value is given as “No effect was seen” and the “Efficacy (EC50) Delta” value was found to be 483.0 µg/mL. The “Selectivity index Delta (CC50/EC50)” value in data set [2] (Therapeutic treatment) is given as 0.86. For the same compound, the “Cytotoxicity (CC50)” value in the data set with Vero E6 TMPRSS2 cells (African green monkey) is 415.3 µg/mL. In the data set with Vero E6 TMPRSS2 cells (compared with traditional antihistamines), the “Toxicity (in words)” value is “less toxic than traditional antihistamines”. In data set [4] (setting [7]), the viability at 0.318 µg/mL came out at 105%, the viability at 1.004 µg/mL amounted to 91.3%, the viability at 3.174 µg/mL was 96.8% and the viability at 10.029 µg/mL came to 105%. In data set [4] (setting [7]), the viability at 31.691 µg/mL came out at 101%, the viability at 100.144 µg/mL amounted to 89.8% and the viability at 316.456 µg/mL worked out at 36.8%. Besides, in data set [5] (setting [7]), the viability at 0.318 µg/mL came out at 102%, the viability at 1.004 µg/mL stood at 93.9%, the viability at 3.174 µg/mL came out at 95% and the viability at 10.029 µg/mL was 100%. For the same compound, in data set [5] (setting [7]), the viability at 31.691 µg/mL amounted to 99.4%, the viability at 100.144 µg/mL was 98.2% and the viability at 316.456 µg/mL is 73.5%.

Consider `CCC(CC)COC(=O)[C@H](C)N[P@](=O)(OC[C@H]1O[C@@](C#N)(c2ccc3c(N)ncnn23)[C@H](O)[C@@H]1O)Oc1ccccc1` [Remdesivir], for which, in data set [4] (setting [7]), the viability at 0.004 µg/mL stood at 101%, the viability at 0.012 µg/mL was 95.9%, the viability at 0.038 µg/mL was 106% and the viability at 0.12 µg/mL was 105%. Also, in data set [4] (setting [7]), the viability at 0.38 µg/mL came to 92.8%, the viability at 1.202 µg/mL came out at 84.1%, the viability at 3.797 µg/mL turned out to be 44.6% and the viability at 12 µg/mL was 20.7%. The EC50 in data set [4] (Severe acute respiratory syndrome coronavirus 2, VeroE6/TMPRSS2, read-out: Efficacy (EC50) Omicron) was roughly 3 µg/mL (≈ 4.98 µM). In data set [5] (setting [7]), the viability at 0.004 µg/mL was 105%, the viability at 0.012 µg/mL was 91.3%, the viability at 0.038 µg/mL is 96.8% and the viability at 0.12 µg/mL was determined as 105%. Also, in data set [5] (setting [7]), the viability at 0.38 µg/mL came to 101%, the viability at 1.202 µg/mL is 89.8% and the viability at 3.797 µg/mL was 36.8%. Moreover, the EC50 in data set [5] (Severe acute respiratory syndrome coronavirus 2, VeroE6/TMPRSS2, read-out: Efficacy (EC50) Delta) is roughly 3 µg/mL (≈ 4.98 µM).
